From BindingDB's records for doi:10.1016/j.bmcl.2015.06.046 (Cubist Pharmaceuticals, 2015)

Test: Antagonist activity at CCR9 receptor (unknown origin) by serum chemotaxis assay

IC50: 170 nM
Structure (SMILES): CC(C)(C)c1ccc(S(=O)(=O)Nc2ccc(Cl)cc2-c2nccnc2NCCO)cc1
